Laboratory results taken from US6896895B2, “Carotenoid esters, carotenoid-enriched feeds, and methods of pigmenting foods and foodstuffs” (DSM IP Assets B.V., priority 2000, dated 2005).
Blank lines part the entries; values can stand above or below the compound they belong to.

Test: Carotenoid ester content in plasma, back skin and abdominal fat of broilers (HPLC)
Assay type: in vivo, broiler chickens (Ross 308, Ross 508)
Conditions: for concentrations determined as equivalents of the ethyl β-apo-8′-carotenoate, in the skin: in comparison to the other 12 tested carotenoid esters
In short: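 Ross 308/508 broilers, raised on low-carotenoid basal diet (<2 mg xanthophylls/kg) to day 15 or 22, then fed pigment-supplemented diet for three weeks; plasma sampled day 42, back skin and abdominal fat pooled per group at slaughter on day 44. Carotenoid esters quantified by normal-phase HPLC (0.5% acetone in n-hexane) calibrated with all-E ethyl β-apo-8′-carotenoate; Z-isomers corrected by factor 1.4.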

[1] = average over doses, in relation to the controls (CAROPHYLL Yellow) of the same trial, Table 3
[2] = trial MC-11/99, 8.88 mg/kg feed
[3] = trial MC-11/99, 13.33 mg/kg feed
[4] = trial MC-24/99, 20 mg/kg feed, in relation to the controls of the same trial
[5] = trial MC-24/99, 30 mg/kg feed, in relation to the controls of the same trial

- Analytical Content as Equivalent of Ethyl β-apo-8′-carotenoate Fat % [1]: 88%
- Analytical Content as Equivalent of Ethyl β-apo-8′-carotenoate Plasma % [1]: 129%
- Analytical Content as Equivalent of Ethyl β-apo-8′-carotenoate Skin % [1]: 134%
- concentrations determined as equivalents of the ethyl β-apo-8′-carotenoate, in the skin: substantially higher
- Analytical Content as Equivalent of Ethyl β-apo-8′-carotenoate Fat (trial MC-02/99, 10 mg/kg feed): 1.8 mg/kg
- Analytical Content as Equivalent of Ethyl β-apo-8′-carotenoate Plasma (trial MC-02/99, 10 mg/kg feed): 6.3 mg/kg
- Analytical Content as Equivalent of Ethyl β-apo-8′-carotenoate Skin (trial MC-02/99, 10 mg/kg feed): 2.0 mg/kg
- Analytical Content as Equivalent of Ethyl β-apo-8′-carotenoate Fat (trial MC-02/99, 20 mg/kg feed): 3.3 mg/kg
- Analytical Content as Equivalent of Ethyl β-apo-8′-carotenoate Plasma (trial MC-02/99, 20 mg/kg feed): 13.4 mg/kg
- Analytical Content as Equivalent of Ethyl β-apo-8′-carotenoate Skin (trial MC-02/99, 20 mg/kg feed): 4.1 mg/kg
- Analytical Content as Equivalent of Ethyl β-apo-8′-carotenoate Fat [2]: 1.2 mg/kg
- Analytical Content as Equivalent of Ethyl β-apo-8′-carotenoate Plasma [2]: 6.0 mg/kg
- Analytical Content as Equivalent of Ethyl β-apo-8′-carotenoate Skin [2]: 1.6 mg/kg
- Analytical Content as Equivalent of Ethyl β-apo-8′-carotenoate Fat [3]: 1.9 mg/kg
- Analytical Content as Equivalent of Ethyl β-apo-8′-carotenoate Plasma [3]: 8.6 mg/kg
- Analytical Content as Equivalent of Ethyl β-apo-8′-carotenoate Skin [3]: 2.6 mg/kg
- Analytical Content as Equivalent of Ethyl β-apo-8′-carotenoate Fat (trial MC-11/99, 20 mg/kg feed): 2.9 mg/kg
- Analytical Content as Equivalent of Ethyl β-apo-8′-carotenoate Plasma (trial MC-11/99, 20 mg/kg feed): 13.3 mg/kg
- Analytical Content as Equivalent of Ethyl β-apo-8′-carotenoate Skin (trial MC-11/99, 20 mg/kg feed): 3.7 mg/kg
- Analytical Content as Equivalent of Ethyl β-apo-8′-carotenoate Fat (trial MC-11/99, 30 mg/kg feed): 3.4 mg/kg
- Analytical Content as Equivalent of Ethyl β-apo-8′-carotenoate Plasma (trial MC-11/99, 30 mg/kg feed): 18.3 mg/kg
- Analytical Content as Equivalent of Ethyl β-apo-8′-carotenoate Skin (trial MC-11/99, 30 mg/kg feed): 6.1 mg/kg
- Analytical Content as Equivalent of Ethyl β-apo-8′-carotenoate Fat (trial MC-11/99, 45 mg/kg feed): 6.4 mg/kg
- Analytical Content as Equivalent of Ethyl β-apo-8′-carotenoate Plasma (trial MC-11/99, 45 mg/kg feed): 30.6 mg/kg
- Analytical Content as Equivalent of Ethyl β-apo-8′-carotenoate Skin (trial MC-11/99, 45 mg/kg feed): 9.0 mg/kg
- Analytical Content as Equivalent of Ethyl β-apo-8′-carotenoate Fat (trial MC-24/98, 15 mg/kg feed): 2.3 mg/kg
- Analytical Content as Equivalent of Ethyl β-apo-8′-carotenoate Plasma (trial MC-24/98, 15 mg/kg feed): 10.0 mg/kg
- Analytical Content as Equivalent of Ethyl β-apo-8′-carotenoate Skin (trial MC-24/98, 15 mg/kg feed): 2.5 mg/kg
- Analytical Content as Equivalent of Ethyl β-apo-8′-carotenoate Fat (trial MC-24/98, 30 mg/kg feed): 4.5 mg/kg
- Analytical Content as Equivalent of Ethyl β-apo-8′-carotenoate Plasma (trial MC-24/98, 30 mg/kg feed): 19.9 mg/kg
- Analytical Content as Equivalent of Ethyl β-apo-8′-carotenoate Skin (trial MC-24/98, 30 mg/kg feed): 5.6 mg/kg
SMILES: CC1=C(/C=C/C(C)=C/C=C/C(C)=C/C=C/C=C(C)/C=C/C=C(\C)C(=O)OC(C)C)C(C)(C)CCC1 [compound (17), isopropyl beta-apo-8′-carotenoate]

- Analytical Content as Equivalent of Ethyl β-apo-8′-carotenoate Fat % [1]: 113%
- Analytical Content as Equivalent of Ethyl β-apo-8′-carotenoate Plasma % [1]: 103%
- Analytical Content as Equivalent of Ethyl β-apo-8′-carotenoate Skin % [1]: 198%
- Analytical Content as Equivalent of Ethyl β-apo-8′-carotenoate Skin % (average over doses, in relation to the controls (CAROPHYLL Yellow) of the same trial, Table 3, listed as tert. Butyl β-apo-8′-carotenoate): 189%
- concentrations determined as equivalents of the ethyl β-apo-8′-carotenoate, in the skin: substantially higher
- Analytical Content as Equivalent of Ethyl β-apo-8′-carotenoate Fat (trial MC-24/99, 20 mg/kg feed): 3.7 mg/kg
- Analytical Content as Equivalent of Ethyl β-apo-8′-carotenoate Plasma (trial MC-24/99, 20 mg/kg feed): 12.2 mg/kg
- Analytical Content as Equivalent of Ethyl β-apo-8′-carotenoate Skin (trial MC-24/99, 20 mg/kg feed): 5.4 mg/kg
- Analytical Content as Equivalent of Ethyl β-apo-8′-carotenoate Fat % [4]: 119%
- Analytical Content as Equivalent of Ethyl β-apo-8′-carotenoate Plasma % [4]: 117%
- Analytical Content as Equivalent of Ethyl β-apo-8′-carotenoate Skin % [4]: 194%
- Analytical Content as Equivalent of Ethyl β-apo-8′-carotenoate Fat (trial MC-24/99, 30 mg/kg feed): 4.6 mg/kg
- Analytical Content as Equivalent of Ethyl β-apo-8′-carotenoate Plasma (trial MC-24/99, 30 mg/kg feed): 14.1 mg/kg
- Analytical Content as Equivalent of Ethyl β-apo-8′-carotenoate Skin (trial MC-24/99, 30 mg/kg feed): 6.4 mg/kg
- Analytical Content as Equivalent of Ethyl β-apo-8′-carotenoate Fat % [5]: 107%
- Analytical Content as Equivalent of Ethyl β-apo-8′-carotenoate Plasma % [5]: 88%
- Analytical Content as Equivalent of Ethyl β-apo-8′-carotenoate Skin % [5]: 184%
SMILES: CC(C=CC=C(C)C=CC1=C(C)CCCC1(C)C)=CC=CC=C(C)C=CC=C(C)C(=O)OC(C)(C)C [compound (18), tert. butyl beta-apo-8′-carotenoate]

- Analytical Content as Equivalent of Ethyl β-apo-8′-carotenoate Fat % [1]: 85%
- Analytical Content as Equivalent of Ethyl β-apo-8′-carotenoate Plasma % [1]: 88%
- Analytical Content as Equivalent of Ethyl β-apo-8′-carotenoate Skin % [1]: 134%
- concentrations determined as equivalents of the ethyl β-apo-8′-carotenoate, in the skin: substantially higher
- Analytical Content as Equivalent of Ethyl β-apo-8′-carotenoate Fat (trial MC-24/99, 20 mg/kg feed): 2.6 mg/kg
- Analytical Content as Equivalent of Ethyl β-apo-8′-carotenoate Plasma (trial MC-24/99, 20 mg/kg feed): 9.6 mg/kg
- Analytical Content as Equivalent of Ethyl β-apo-8′-carotenoate Skin (trial MC-24/99, 20 mg/kg feed): 3.6 mg/kg
- Analytical Content as Equivalent of Ethyl β-apo-8′-carotenoate Fat % [4]: 83%
- Analytical Content as Equivalent of Ethyl β-apo-8′-carotenoate Plasma % [4]: 93%
- Analytical Content as Equivalent of Ethyl β-apo-8′-carotenoate Skin % [4]: 128%
- Analytical Content as Equivalent of Ethyl β-apo-8′-carotenoate Fat (trial MC-24/99, 30 mg/kg feed): 3.8 mg/kg
- Analytical Content as Equivalent of Ethyl β-apo-8′-carotenoate Plasma (trial MC-24/99, 30 mg/kg feed): 13.3 mg/kg
- Analytical Content as Equivalent of Ethyl β-apo-8′-carotenoate Skin (trial MC-24/99, 30 mg/kg feed): 4.8 mg/kg
- Analytical Content as Equivalent of Ethyl β-apo-8′-carotenoate Fat % [5]: 87%
- Analytical Content as Equivalent of Ethyl β-apo-8′-carotenoate Plasma % [5]: 82%
- Analytical Content as Equivalent of Ethyl β-apo-8′-carotenoate Skin % [5]: 139%
SMILES: CCCC(C)OC(=O)C(C)=CC=CC(C)=CC=CC=C(C)C=CC=C(C)C=CC1=C(C)CCCC1(C)C (stereo not drawn) [compound (19), 2-pentyl beta-apo-8′-carotenoate]
